Common to all, as to assay: NCI tumour cell line growth inhibition, 48 h
In assay [1] the test system is MDA-MB-231.
For assay [2], the system named is SNB-75.
In assay [3] the test system is DU-145.
Assay [4] concerns RXF 393.
Assay [5] has as its system SF-268.
Assay [6] relates to M14.
For assay [7], the system named is NCI-H226.
Assay [8] relates to SF-295.
In assay [9] the test system is UACC-257.
The test system of assay [10] is MOLT-4.
Assay [11] deals with T47D.
Assay [12] concerns CAKI-1.
Assay [13] has as its system OVCAR-4.
Assay [14] relates to HOP-92.
For assay [15], the system named is COLO 205.
Assay [16] has as its system EKVX.
For assay [17], the system named is SK-MEL-28.
Assay [18] deals with 786-0.
Assay [19] deals with MDA-N.
The test system of assay [20] is LOX IMVI.

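Growth conditions: 96-well plates. Treatment: test compound, 48 hours, 5 concentrations. Analysis: linear interpolation between bracketing concentrations; unreached endpoints set to highest concentration. At the GI50, growth is halved.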 Calls of active or inactive are those of the source. Rule as the data show it: active = GI50 up to about 1.1 µM and inactive = higher.

In the case of `Cc1ccn2c(CCc3nnc4cc(C)ccn34)nnc2c1`, the GI50 in [1], in assay [2], in [3], in assay [4], in [5] and in assay [6] was > 100 µM (inactive) in each case. Besides, the GI50 in [7], in assay [8], in assay [9], in assay [10], in [11] and in [12] was > 100 µM (inactive) throughout. Moreover, the GI50 in [13], in assay [14], in assay [15], in [16], in assay [17] and in assay [18] was > 100 µM (inactive) each time. The GI50 in assay [19] is > 100 µM (inactive).

In the case of `CN1C(Cl)=NS(=O)(=O)c2ccccc21`, the GI50 in assay [20], in assay [1], in [3], in [4], in assay [5] and in [6] was > 100 µM (inactive) throughout. For the same compound, the GI50 is > 100 µM (inactive) in [7]; > 100 µM (inactive) in assay [8]; > 100 µM (inactive) in assay [9]; 51.4 µM (inactive) in [10]; > 100 µM (inactive) in assay [11]; 16.9 µM (inactive) in [12]. For the same compound, the GI50 in [13] was > 100 µM (inactive); in [14], > 100 µM (inactive); in assay [15], 43 µM (inactive); in assay [16], > 100 µM (inactive); in assay [17] it was > 100 µM (inactive); in assay [18], > 100 µM (inactive). The GI50 in [19] is > 100 µM (inactive).

Take `CC(C)(C)OC(=O)NC(Cc1ccc(OCc2ccccc2)cn1)C(=O)N1CCCCC1` (stereo not given): the GI50 in [20] is 25.4 µM (inactive); in assay [1] it was 43.4 µM (inactive); in assay [2] it was 20.5 µM (inactive); in [3], 33 µM (inactive); in assay [4] it was 19.5 µM (inactive); in [5], 65.6 µM (inactive). The GI50 in assay [6] was 37.8 µM (inactive); in assay [8] it was 30.5 µM (inactive); in [9] it was 19.6 µM (inactive); in assay [10], 19.5 µM (inactive); in assay [11] it was 12.1 µM (inactive); in assay [12] it was 60.4 µM (inactive). Further, the GI50 is 39.9 µM (inactive) in [14]; 18.6 µM (inactive) in [15]; 37.1 µM (inactive) in assay [16]; 54.3 µM (inactive) in assay [17]; 56 µM (inactive) in [18]; 28.1 µM (inactive) in assay [19].

Take `CN(C)CCCNc1ccc2nnn3c4ccc(OC(=O)c5ccccc5)cc4c(=O)c1c23`: the GI50 in assay [20] was 2.17 µM (inactive); in [1], 10.4 µM (inactive); in assay [3], 8.26 µM (inactive); in assay [4], 4.44 µM (inactive); in [5], 10.5 µM (inactive); in [6], 13.4 µM (inactive). The GI50 was 10.9 µM (inactive) in assay [8]; 16 µM (inactive) in assay [9]; 0.192 µM (active) in assay [10]; 18.7 µM (inactive) in assay [11]; 0.579 µM (active) in [12]; 1.66 µM (inactive) in assay [13]. In addition, the GI50 in assay [14] is 12.6 µM (inactive); in assay [15], 14 µM (inactive); in assay [16], 4.24 µM (inactive); in [17], 15.8 µM (inactive); in [18], 3.08 µM (inactive); in [19], 13.8 µM (inactive).

Consider `O=C1c2ccccc2C(=O)N1c1nc(-c2ccc(Cl)cc2)cc(N2N=C(c3ccc(Br)cc3)CC2c2ccccc2)n1` (stereo not given), for which the GI50 in assay [20] is 1.29 µM (inactive); in [1], 4.07 µM (inactive); in [3], 3.45 µM (inactive); in assay [4], 9.16 µM (inactive); in [5], 2.7 µM (inactive); in assay [6], 3.73 µM (inactive). Moreover, the GI50 in [7] is 5.38 µM (inactive); in assay [8] it was 0.91 µM (active); in assay [9], 6.7 µM (inactive); in assay [10], 2.51 µM (inactive); in assay [11], 1.88 µM (inactive); in assay [12], 1.51 µM (inactive). Moreover, the GI50 in assay [13] is 4.23 µM (inactive); in assay [14] it was 11.4 µM (inactive); in assay [15], 1.9 µM (inactive); in [16] it was 0.792 µM (active); in assay [17], 7.73 µM (inactive); in assay [18], 4.93 µM (inactive). In addition, the GI50 in [19] is 1.03 µM (active).

`O=C(/C=C/c1ccc2c(c1)OCO2)NCc1ccco1`: the GI50 in assay [20] was > 100 µM (inactive); in assay [1], > 100 µM (inactive); in assay [2], 22.3 µM (inactive); in assay [3], > 100 µM (inactive); in assay [6], > 100 µM (inactive); in assay [7] it was > 100 µM (inactive). Further, the GI50 is > 100 µM (inactive) in assay [8]; > 100 µM (inactive) in assay [9]; > 100 µM (inactive) in assay [10]; 19.4 µM (inactive) in [11]; > 100 µM (inactive) in assay [12]; 41.6 µM (inactive) in assay [13]. Besides, the GI50 in [14] was 92.5 µM (inactive); in assay [15] it was > 100 µM (inactive); in assay [16], 71.6 µM (inactive); in assay [17], > 100 µM (inactive); in assay [18], > 100 µM (inactive); in [19], > 100 µM (inactive).

Consider `CCOC(=O)C1CCC(=O)N1C(=O)c1cccc(Cl)c1` (stereo not given), for which the GI50 in assay [20], in assay [1], in assay [2], in assay [3], in [4] and in assay [5] was > 100 µM (inactive) each time. Besides, the GI50 in assay [6], in assay [7], in assay [8], in [9], in assay [10] and in [11] was > 100 µM (inactive) throughout. The GI50 in [12], in [14], in assay [16], in [17], in [18] and in assay [19] was > 100 µM (inactive) each time.

In the case of `O=C(NCCCCNCCCNC(=O)c1cc(-c2ccccc2)nc2ccccc12)c1cc(-c2ccccc2)nc2ccccc12`, the GI50 in [20] is 1.54 µM (inactive); in assay [1], 1.85 µM (inactive); in assay [2], 1.84 µM (inactive); in assay [3] it was 1.78 µM (inactive); in [4] it was 2.19 µM (inactive); in assay [5] it was 2.03 µM (inactive). The GI50 was 2.1 µM (inactive) in assay [6]; 1.78 µM (inactive) in [7]; 1.77 µM (inactive) in assay [8]; 1.73 µM (inactive) in assay [9]; 1.42 µM (inactive) in assay [10]; 1.87 µM (inactive) in [11]. Besides, the GI50 was 1.84 µM (inactive) in [12]; 1.37 µM (inactive) in assay [14]; 1.49 µM (inactive) in assay [15]; 1.99 µM (inactive) in assay [16]; 1.83 µM (inactive) in assay [17]; 1.67 µM (inactive) in assay [18]. In assay [19], the GI50 is 1.83 µM (inactive).

`O=S1(=O)CCN(Cc2ccccn2)CC1`: the GI50 in assay [20], in assay [1], in [2], in [3], in assay [4] and in assay [5] was > 100 µM (inactive) each time. For the same compound, the GI50 in [6], in assay [7], in assay [8], in assay [9], in assay [11] and in assay [12] was > 100 µM (inactive) in each case. Moreover, the GI50 in assay [13], in [14], in assay [15], in assay [16], in assay [17] and in assay [18] was > 100 µM (inactive) each time. In addition, in assay [19], the GI50 was > 100 µM (inactive).

As for `Cc1ccc(/C=C2\CN(C)CC3C(c4ccc(C)cc4)=C(C#N)C(=O)NC23)cc1` (stereo not given), the GI50 in assay [20] is > 50 µM (inactive); in assay [1], 48.2 µM (inactive); in [3] it was > 50 µM (inactive); in assay [4], > 50 µM (inactive); in assay [5] it was > 50 µM (inactive); in [6], > 50 µM (inactive). The GI50 in assay [7], in assay [8], in assay [9], in assay [10], in assay [11] and in assay [12] was > 50 µM (inactive) in each case. The GI50 is > 50 µM (inactive) in assay [13]; 29.3 µM (inactive) in assay [14]; > 50 µM (inactive) in assay [15]; > 50 µM (inactive) in assay [16]; > 50 µM (inactive) in assay [17]; > 50 µM (inactive) in [18]. Moreover, in assay [19], the GI50 was > 50 µM (inactive).

On to `CC1=C(C)C2(C#N)C(=O)N3C(=NC(c4ccccc4)NC3c3ccccc3)C2(C#N)C(c2ccccc2)N1` (stereo not given), for which the GI50 in assay [20], in [1], in assay [3], in assay [4], in [5] and in [6] was > 100 µM (inactive) throughout. For the same compound, the GI50 in assay [7], in assay [8], in [9], in assay [10], in assay [11] and in assay [12] was > 100 µM (inactive) in each case. Besides, the GI50 in assay [13], in assay [14], in [15], in assay [16], in assay [17] and in assay [18] was > 100 µM (inactive) each time. In [19], the GI50 was > 100 µM (inactive).
